PMC7473772 (eLife, 2020)
Values joined by “and” are separate entries in the source; they are usually repeats but may differ in a detail not shown here. Equal values may be shown once. Read-outs that look alike come from different tables or passages of the source.

Experiments:
[1] = molecular target: TbAQP2/HAPT1 (Trypanosoma brucei brucei, UniProt Q6ZXT3); assay: cell-based; type: cell-based
[2] = test system: T. b. brucei 2T1; assay: Drug sensitivity assay (resazurin); type: cell-based; details: Trypanosoma brucei, 48 h drug + 24 h resazurin, read-out: EC50 control 2T1 AVG
Protocol: The tbaqp2/tbaqp3 null cells ([Baker et al., 2012]) and tbaqp1-2-3 null cells ([Jeacock et al., 2017]) (both obtained from David Horn, University of Dundee, UK) are derived from the 2T1 strain of T. b. brucei ([Alsford and Horn, 2008]). The CRK12 RNAi cell line^28 was obtained from Dr Tansy Hammarton (University of Glasgow, UK) and is also based on the 2T1 cell line; RNAi expression was induced with 1 µg/ml tetracycline in the medium. All experiments were performed with bloodstream form trypanosomes grown in vitro in HMI-11 medium as described ([Wallace et al., 2002]) at 37°C in a 5% CO2 atmosphere. Cultures were routinely maintained in 10 ml of this medium, being seeded at 5 × 10^4 cells/ml and passed to fresh medium at reaching approximately 3 × 10^6 cells/ml after 48 hr. For transport experiments 150 or 200 ml of culture was seeded at the same density in large flasks and incubated until the culture reached late-log phase.
Drug sensitivity assays for T. b. brucei bloodstream forms used the cell viability dye resazurin (Sigma) and were performed exactly as described ([Wallace et al., 2002]; [Bridges et al., 2007]) in 96-well plates with doubling dilutions of test compound, starting at 100 µM, over 2 rows of the plate (23 dilutions plus no-drug control). Incubation time with test compound was 48 hr (37°C/5% CO2), followed by an additional 24 hr in the presence of the dye.

[3] = test system: tbaqp2/tbaqp3 null cells expressing TbAQP2^I110W/L264R; type: cell-based, Trypanosoma brucei brucei
[4] = test system: tbaqp2/tbaqp3 null cells expressing TbAQP2 L118W; assay: microbe, parasite or virus in culture; type: cell-based, Trypanosoma brucei brucei
[5] = test system: tbaqp2/tbaqp3 null cells expressing TbAQP2^L84W/L118W; assay: Drug sensitivity assay (resazurin); type: cell-based, Trypanosoma brucei brucei; details: Fig. 4A, L84W/L118W in aqp2/aqp3 null, read-out: Alamar blue EC50, single repeats
[6] = test system: tbaqp2/tbaqp3 null cells expressing TbAQP2 L84M; assay: microbe, parasite or virus in culture; type: cell-based, Trypanosoma brucei brucei; details: Trypanosoma brucei
[7] = test system: tbaqp2/tbaqp3 null cells expressing TbAQP3; type: cell-based, Trypanosoma brucei brucei
[8] = test system: tbaqp2/tbaqp3 null cells expressing TbAQP3^W102I/R256L/Y250L; type: cell-based, Trypanosoma brucei brucei
[9] = test system: tbaqp1-2-3 null cells expressing TbAQP2WT; assay: Drug sensitivity assay (resazurin), pentamidine and SHAM; type: cell-based, Trypanosoma brucei brucei; details: Trypanosoma brucei, +AQP2 W.T in aqp1-3 triple KO; 3 repeats; read-out: Alamar blue EC50, MEAN
[10] = molecular target: TbAQP2WT (Trypanosoma brucei brucei, UniProt Q6ZXT3); assay: cell-based
[11] = test system: TbAQP2WT; assay: cell-based; parameters: species or system Trypanosoma brucei brucei
[12] = molecular target: TbAQP2^L84W/L118W (Trypanosoma brucei brucei, UniProt Q6ZXT3, L118W/L84W); assay: [3H]-pentamidine transport; type: cell-based; details: AQP2 mutant L84W/118W; n=3
Chain of TbAQP2^L84W/L118W (Q6ZXT3 whole entry L84W/L118W): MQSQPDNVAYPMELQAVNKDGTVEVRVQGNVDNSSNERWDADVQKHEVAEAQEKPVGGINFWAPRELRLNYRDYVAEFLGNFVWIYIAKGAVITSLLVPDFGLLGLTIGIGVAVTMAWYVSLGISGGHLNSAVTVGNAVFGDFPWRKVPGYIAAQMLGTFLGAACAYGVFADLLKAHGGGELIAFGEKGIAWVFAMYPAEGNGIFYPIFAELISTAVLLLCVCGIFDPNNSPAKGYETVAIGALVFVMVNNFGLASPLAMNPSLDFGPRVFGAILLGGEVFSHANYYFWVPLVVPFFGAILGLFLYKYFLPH

[13] = molecular target: TbAQP2 L118M (Trypanosoma brucei brucei, UniProt Q6ZXT3, L118M); assay: [3H]-pentamidine transport; type: cell-based; details: AQP2 mutant L118M
Chain of TbAQP2 L118M (Q6ZXT3 whole entry L118M): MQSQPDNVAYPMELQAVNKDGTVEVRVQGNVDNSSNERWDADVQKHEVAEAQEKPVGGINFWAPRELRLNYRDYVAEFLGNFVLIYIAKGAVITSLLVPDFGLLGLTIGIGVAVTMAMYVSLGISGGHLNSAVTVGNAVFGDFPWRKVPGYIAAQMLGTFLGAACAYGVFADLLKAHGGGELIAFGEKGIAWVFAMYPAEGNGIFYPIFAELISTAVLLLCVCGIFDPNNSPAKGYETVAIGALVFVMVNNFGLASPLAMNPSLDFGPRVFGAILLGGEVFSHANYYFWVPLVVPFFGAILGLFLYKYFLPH

[14] = molecular target: TbAQP3 (Trypanosoma brucei brucei, UniProt Q6ZXT2); type: cell-based
Chain of TbAQP3 (Q6ZXT2 whole entry): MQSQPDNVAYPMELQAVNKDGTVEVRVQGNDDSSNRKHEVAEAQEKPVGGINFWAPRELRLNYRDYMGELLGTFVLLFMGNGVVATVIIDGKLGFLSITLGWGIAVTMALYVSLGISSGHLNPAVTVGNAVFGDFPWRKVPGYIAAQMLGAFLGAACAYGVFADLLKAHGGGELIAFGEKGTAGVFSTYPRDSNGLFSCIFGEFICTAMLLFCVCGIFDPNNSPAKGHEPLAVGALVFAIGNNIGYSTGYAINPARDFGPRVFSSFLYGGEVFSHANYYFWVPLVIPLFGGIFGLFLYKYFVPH

[15] = molecular target: T1, aqp1/aqp2/aqp3 null cells expressing TbAQP2-WT (Trypanosoma brucei brucei, UniProt Q6ZXT3); assay: Inhibition of [3H]-glycerol uptake; type: cell-based; details: for glycerol uptake: zero inhibitor point 0.002246
T1 sequence (Q6ZXT3 1-312): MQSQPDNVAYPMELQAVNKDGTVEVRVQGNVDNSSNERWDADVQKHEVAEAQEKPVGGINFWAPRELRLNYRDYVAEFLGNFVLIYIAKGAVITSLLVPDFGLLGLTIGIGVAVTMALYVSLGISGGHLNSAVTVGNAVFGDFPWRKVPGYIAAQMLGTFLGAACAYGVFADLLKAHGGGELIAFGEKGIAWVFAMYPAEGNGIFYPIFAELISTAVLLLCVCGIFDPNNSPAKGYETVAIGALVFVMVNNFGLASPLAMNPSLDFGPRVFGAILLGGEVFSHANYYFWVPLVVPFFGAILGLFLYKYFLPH

[16] = molecular target: T1, aqp1/aqp2/aqp3 null cells expressing TbAQP2-WT; assay: Inhibition of [3H]-pentamidine uptake (dose response); type: cell-based; details: zero inhibitor point 0.01011
[17] = molecular target: T2, 3×HA tagged TbAQP2 (Trypanosoma brucei brucei, UniProt Q6ZXT3); type: cell-based
T2 construct: expressed in transfected cells; host or cells: T. brucei 2T1 bloodstream forms, tetracycline-induced

N=C(N)c1ccc(OCCCCCOc2ccc(C(=N)N)cc2)cc1 [Pentamidine]
ΔG0 [1]: -10.2 kcal/mol | ΔG^0 (binding energy of substrate-transporter pair) [1]: -10.2 kcal/mol | δ(ΔG0) [1]: 0 kcal/mol | Ki ([1]; Ki): 0.036 ± 0.0006 µM | Ki ([1]; Ki / affinity): 0.035 µM | EC50 [2]: 0.015 µM | EC50 as percent of AQP2/3 null EC50, MEAN [3]: 101.41% | EC50 ([4]; Trypanosoma brucei, read-out: Alamar blue EC50, MEAN): 0.0463 µM | EC50 ([4]; Trypanosoma brucei, read-out: Alamar blue EC50, single repeats): 0.0524 µM | EC50 ([4]; Trypanosoma brucei, read-out: EC50 AVG): 0.0463 µM | EC50 ([4]; read-out: Alamar blue EC50, single repeats): 0.0408 µM and 0.0457 µM | EC50 [5]: 0.0657 µM | EC50 ([5]; Trypanosoma brucei): 0.0534 µM | EC50 ([6]; read-out: Alamar blue EC50, MEAN): 0.00043 µM | EC50 ([6]; read-out: EC50 AVG): 0.00043 µM | EC50 as percent of AQP2/3 null EC50, MEAN [7]: 105.70% | EC50 as percent of AQP2/3 null EC50, MEAN [8]: 31.94% | EC50 [9]: 0.0011 µM | EC50 [10]: 0.041 ± 0.017 µM | Pentamidine transport rate AVG [10]: 0.02122 pmol/10E7 cells/s | Pentamidine transport rate as percent of +AQP2-WT, AVG [10]: 100.0% | Pentamidine transport rate as percent of +AQP2-WT, single experiments [10]: 100.0% | Pentamidine transport rate, AVG [10]: 0.02122 pmol/10E7 cells/s and 0.03781 pmol/10E7 cells/s | Pentamidine transport rate, percent of +AQP2-WT, AVG [10]: 100.00% of +AQP2-WT | Transport rate AVG [10]: 100 | activity at 0.03 µM ([10]; read-out: Pentamidine transport rate, percent of +AQP2-WT): 100% | Km ([11]; TbAQP2-WT cells, read-out: Km of low affinity component (LAPT1)): 82.7 ± 17.5 µM | [3H]-pentamidine taken up by the low affinity component ([11]; highly similar for TbAQP2^I190T and TbAQP2WT cell lines): approximately 0.0005 pmol(10^7 cells)^−1 s^−1 | Pentamidine transport rate AVG [12]: 0.0002985 pmol/10E7 cells/s | Pentamidine transport rate AVG ([13]; n=3): 0.0006601 pmol/10E7 cells/s | Pentamidine transport rate ([13]; single experiments): 0.000589 pmol/10E7 cells/s and 0.000736 pmol/10E7 cells/s and 0.0006552 pmol/10E7 cells/s | Pentamidine transport rate [14]: 1.04E-04 pmol/10E7 cells/s | Pentamidine transport rate, percent of TbAQP2WT control [14]: 0.49% | Transport rate AVG [14]: 0.48 | EC50 [15]: 0.0275 µM | glycerol uptake ([15]; log[inhibitor] -3.60): 6.78e-20 | glycerol uptake ([15]; log[inhibitor] -6.48): 0.000111 | glycerol uptake ([15]; log[inhibitor] -7.00): 0.000765 | glycerol uptake ([15]; log[inhibitor] -7.52): 0.00147 | glycerol uptake ([15]; log[inhibitor] -8.00): 0.002105 | glycerol uptake ([15]; log[inhibitor] -8.48): 0.002143 | glycerol uptake ([15]; log[inhibitor] -9.00): 0.002263 | glycerol uptake ([15]; log[inhibitor] -9.48): 0.002177 | pentamidine uptake ([16]; log[inhibitor] -3.60): -1.5e-19 | pentamidine uptake ([16]; log[inhibitor] -6.48): 0.001052 | pentamidine uptake ([16]; log[inhibitor] -7.00): 0.005102 | pentamidine uptake ([16]; log[inhibitor] -7.52): 0.006394 | pentamidine uptake ([16]; log[inhibitor] -8.00): 0.007854 | pentamidine uptake ([16]; log[inhibitor] -8.48): 0.008733 | pentamidine uptake ([16]; log[inhibitor] -9.00): 0.008545 | pentamidine uptake ([16]; log[inhibitor] -9.48): 0.009352 | Effect on TbAQP2 turnover rate [17]: identical turnover rates
